# Patent US20080193563A1, “HARNESSING WNT SIGNALING TO RESTRICT HIV REPLICATION” (priority 2006, published 2008)
# Columns and labels:
# CD4, hMR, CXCR4 on HFA = experiment: HIV receptor and chemokine co-receptor expression on HFA by flow cytometry; format: cell-based, human
# Procedure: U87MG (A) and HFA (B) were left untreated or treated GM-CSF (50 ng/ml) or IFNγ (100 ng/ml) for 24 h. Expression of receptors on the x-axis was measured by flow cytometry. Isotype refers to mouse IgG. Data is representative of three experiments. Error bars represent standard deviation of the mean. (C). IFNγ up-regulates D6 on U87MG cells. U87MG were left untreated or treated with IFNγ. After 3 days, the cells were immunostained with anti-D6 or isotype antibodies. The first histogram (peak) represents isotype control; the dark shaded histogram represents untreated cultures, and the third histogram (peak) represents IFNγ-treated cultures. Data is typical of quadruplet experiments.
# Because IFNγ was a potent cytokine in inducing HIV infection of astrocytes, it was determined whether IFNγ treatment modulated key HIV receptors CD4, human mannose receptor D6 and co-receptors (CCR1, CCR2, CCR3, CXCR4, and CCR5) for HIV infection. U87MG is human mannose receptor (hMR) […] (FIG. 5). However, hMR was not detected on HFA, which may be regulated by the differentiation stage of the HFA (FIG. 5 (B)). CD4 and hMR expression in both U87MG and HFA was not augmented by IFNγ or GM-CSF (FIG. 5(A)-(B)). […] HFA were positive for CXCR4 (12%), but its expression was not augmented by GM-CSF or IFNγ treatment (FIG. 5B). IFNγ was reported to enhance CXCR4 and CCR5 expression on simian adult astrocytes, which is in contrast to data on human fetal astrocytes highlighting a discrepancy between simian adult and human fetal astrocytes. […] Infection of U87MG and HFA with a T-tropic isolate (IIIB), while it was productive, was not enhanced by cytokine pre-treatment. This may be a consequence of the laboratory adapted HIV IIIB, therefore primary T-tropic or dual tropic strains may still be responsive to IFNγ pre-treatment of astrocytes. Recently, the CC chemokine receptor D6 was identified as a functional co-receptor for primary HIV infection of astrocytes.
# TCF-4 / Wnt signaling = experiment: TOPflash luciferase reporter (Wnt signaling) in U87MG; format: cell-based, human; details: IFNγ treated, 24 hrs post-transfection
# Procedure: FIG. 11 Impact of IFN-γ on Wnt signaling. U87MG cells were left untreated or treated with IFN-γ for 24 hrs and then transfected with either TOPflash (containing four native TCF/LEF binding sites) and Renilla constructs or GFP and Renilla constructs. Transfected cells were then cultured with or without their initial treatment (with or without IFN-γ). Luciferase relative light activity (relative light units) was measured 24 hrs later using a luminometer and normalized to Renilla activity. Data are based on at least three experiments and are presented as the increase (n-fold) in luciferase relative light units over Renilla ±standard deviation.
# Wnt signaling in astrocytes and its inhibition by IFNγ was investigated: Although inhibiting TCF-4 with a dominant negative mutant stresses the importance of active TCF-4 in restricting HIV replication, it is not informative regarding the mechanism by which IFNγ overcomes astrocyte restriction to productive HIV replication. […] Luc activity was measured 24 hrs post-transfection TCF-4 reporter construct is an indicator of basal and inducible levels of Wnt signaling.
# Active Wnt signaling in astrocytes and its inhibition by IFN-γ. […] Basal TCF-4 activity was detected in astrocytes, indicating active Wnt signaling in human astrocytes (FIG. 11). […]
substance,measurement,setting,value
"IFNγ: cytokine secreted by lymphocytes, activated microglia and astrocytes; used to prime astrocytes",CD4 and hMR expression,"CD4, hMR, CXCR4 on HFA",not augmented
same,CXCR4 expression,"CD4, hMR, CXCR4 on HFA; untreated 12%",not augmented
same,Reduction of basal Wnt signaling (TOPflash luciferase),TCF-4 / Wnt signaling,approximately 50%
